Experimental data published in ChEMBL document CHEMBL1201862, “PubChem BioAssay data set” (2004).
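Method: 48-hour compound exposure of cells in 96-well plates, five concentrations, linear interpolation of endpoints. At the GI50, growth is halved.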 The source made the active and inactive calls. No stated cut-off is given here; in the data, active = GI50 up to about 1.1 µM and inactive = higher.

Tests used:
Experiment in all cases: growth of human tumour cells (NCI), 48 h
[1] = system: 786-0
[2] = system: A498
[3] = system: A549
[4] = system: ACHN
[5] = system: CCRF-CEM
[6] = system: DU-145
[7] = system: HL-60
[8] = system: KM12
[9] = system: M14
[10] = system: MCF7
[11] = system: MDA-MB-231
[12] = system: NCI-H23
[13] = system: NCI-H522
[14] = system: OVCAR-3
[15] = system: RPMI-8226
[16] = system: RXF 393
[17] = system: SK-MEL-5
[18] = system: SK-OV-3
[19] = system: SR
[20] = system: UACC-62

| Structure (SMILES) | GI50 [1] | GI50 [2] | GI50 [3] | GI50 [4] | GI50 [5] | GI50 [6] | GI50 [7] | GI50 [8] | GI50 [9] | GI50 [10] | GI50 [11] | GI50 [12] | GI50 [13] | GI50 [14] | GI50 [15] | GI50 [16] | GI50 [17] | GI50 [18] | GI50 [19] | GI50 [20] |
| --- | --- | --- | --- | --- | --- | --- | --- | --- | --- | --- | --- | --- | --- | --- | --- | --- | --- | --- | --- | --- |
| [O-]c1c2cc(-[n+]3c(-c4ccccc4)cc(-c4ccccc4)cc3-c3ccccc3)cc1CO[C@@H](c1ccccc1)[C@H](c1ccccc1)OCc1cccc(n1)CO[C@@H](c1ccccc1)[C@H](c1ccccc1)OC2 | 76.4 nM (active) | 0.867 µM (active) | 0.0536 µM (active) | 0.304 µM (active) | 31.4 nM (active) | 0.326 µM (active) | 21.5 nM (active) | 0.0383 µM (active) | 0.161 µM (active) | 0.0388 µM (active) | 0.16 µM (active) | 0.0569 µM (active) | 35.3 nM (active) | 0.0299 µM (active) | 0.0135 µM (active) | 0.219 µM (active) | 0.0424 µM (active) | 0.0775 µM (active) | 35 nM (active) | 0.0931 µM (active) |
| NC(=O)NN=C1Cc2ccccc2C1 | > 100000 nM (inactive) | > 100 µM (inactive) | > 100 µM (inactive) | > 100 µM (inactive) | > 100000 nM (inactive) | > 100 µM (inactive) | > 100000 nM (inactive) | > 100 µM (inactive) | > 100 µM (inactive) | > 100 µM (inactive) | > 100 µM (inactive) | > 100 µM (inactive) | > 100000 nM (inactive) | > 100 µM (inactive) | > 100 µM (inactive) | > 100 µM (inactive) | > 100 µM (inactive) | > 100 µM (inactive) | > 100000 nM (inactive) | > 100 µM (inactive) |
| Cc1ccc2c3ccc4c(c3n(C)c2c1)C(=O)C=CC4=O | 2330 nM (inactive) | > 10 µM (inactive) | > 10 µM (inactive) | 3.51 µM (inactive) | 335 nM (active) | > 10 µM (inactive) | 1040 nM (active) | > 10 µM (inactive) | 3.66 µM (inactive) | 3.29 µM (inactive) | 3.97 µM (inactive) | > 9.23 µM (inactive) | 2950 nM (inactive) | 2.52 µM (inactive) | 2.39 µM (inactive) | 4.25 µM (inactive) | > 10 µM (inactive) | > 10 µM (inactive) | 1420 nM (inactive) | > 8.22 µM (inactive) |
| OCC1OC(n2cnc3c(SCc4ccccc4)ncnc32)C(O)C1O (stereo not given) | 27500 nM (inactive) | 2.98 µM (inactive) | 26.3 µM (inactive) | 4.24 µM (inactive) | 169 nM (active) | 5.35 µM (inactive) | 1210 nM (inactive) | > 100 µM (inactive) | 99.3 µM (inactive) | 3.08 µM (inactive) | 5.48 µM (inactive) | 4.86 µM (inactive) | 17500 nM (inactive) | 6.61 µM (inactive) | 19.4 µM (inactive) | 20.2 µM (inactive) | > 100 µM (inactive) | > 89.3 µM (inactive) | 2900 nM (inactive) | 98.9 µM (inactive) |
| C=C(CN(C)C)C(=O)c1ccc(Oc2ccccc2)cc1 | 2150 nM (inactive) | 17.7 µM (inactive) | 19.5 µM (inactive) | 1.8 µM (inactive) | 272 nM (active) | 14.5 µM (inactive) | 695 nM (active) | 12.8 µM (inactive) | 1.76 µM (inactive) | 3.3 µM (inactive) | 5.81 µM (inactive) | 7.71 µM (inactive) | 1550 nM (inactive) | 4.86 µM (inactive) | 0.962 µM (active) | 2.4 µM (inactive) | 7.21 µM (inactive) | 21.3 µM (inactive) | 692 nM (active) | 4.39 µM (inactive) |
| CCCC(=O)Nc1cc(/C=C/C(=O)N2CC(CCl)c3c2cc(OC(C)=O)c2[nH]cc(C)c32)n(C)c1 (stereo not given) | < 0.025 nM (active) | 0.000116 µM (active) | 8.19e-05 µM (active) | < 2.5e-05 µM (active) | < 0.025 nM (active) | < 2.5e-05 µM (active) | < 0.025 nM (active) | 8.73e-05 µM (active) | 5.38e-05 µM (active) | 2.94e-05 µM (active) | 6.44e-05 µM (active) | < 2.5e-05 µM (active) | < 0.025 nM (active) | < 2.5e-05 µM (active) | 0.000171 µM (active) | < 2.5e-05 µM (active) | < 2.5e-05 µM (active) | 7.05e-05 µM (active) | < 0.025 nM (active) | < 2.5e-05 µM (active) |
| C=CC1(CBr)CCC(C(C)(C)Br)O1 (stereo not given) | 1790 nM (inactive) | 19.1 µM (inactive) | 17.3 µM (inactive) | 16.4 µM (inactive) | 2080 nM (inactive) | 10 µM (inactive) | 832 nM (active) | 12.2 µM (inactive) | 13.1 µM (inactive) | 15.6 µM (inactive) | 13.2 µM (inactive) | 6.98 µM (inactive) | 2510 nM (inactive) | 9.42 µM (inactive) | 1.79 µM (inactive) | 13.7 µM (inactive) | 9.86 µM (inactive) | 14.5 µM (inactive) | 2520 nM (inactive) | 10.3 µM (inactive) |
| COc1ccc(NC/C=C/C(=C/COC(C)=O)OC(C)=O)cc1 | 1180 nM (inactive) | 1.39 µM (inactive) | 15.3 µM (inactive) | 1.73 µM (inactive) | 1770 nM (inactive) | 3.11 µM (inactive) | 2270 nM (inactive) | 0.448 µM (active) | 1.73 µM (inactive) | 2.63 µM (inactive) | 1.78 µM (inactive) | 2.06 µM (inactive) | 2720 nM (inactive) | 2 µM (inactive) | 0.252 µM (active) | 1.6 µM (inactive) | 15.3 µM (inactive) | 14.9 µM (inactive) | 514 nM (active) | 3.82 µM (inactive) |
| c1csc(-c2cscc2-c2ccsc2)c1 | > 63100 nM (inactive) | > 96.8 µM (inactive) | 47.9 µM (inactive) | > 83.9 µM (inactive) | 41800 nM (inactive) | > 100 µM (inactive) | 30500 nM (inactive) | 32.1 µM (inactive) | 54.1 µM (inactive) | 30.6 µM (inactive) | > 100 µM (inactive) | 35.3 µM (inactive) | 22200 nM (inactive) | 18.4 µM (inactive) | 34 µM (inactive) | 20.9 µM (inactive) | 75.9 µM (inactive) | 47.4 µM (inactive) | 26600 nM (inactive) | 70.3 µM (inactive) |
| N=C(N)SCc1cccc2c(=O)cc(-c3ccccc3)oc12 | 3900 nM (inactive) | 9.27 µM (inactive) | 7.62 µM (inactive) | 3.53 µM (inactive) | 3870 nM (inactive) | 4.93 µM (inactive) | 3180 nM (inactive) | 9.29 µM (inactive) | 5.28 µM (inactive) | 2.73 µM (inactive) | 6.41 µM (inactive) | 5.58 µM (inactive) | 3870 nM (inactive) | 6.97 µM (inactive) | 2.54 µM (inactive) | 4.79 µM (inactive) | 11.1 µM (inactive) | 12.8 µM (inactive) | 4050 nM (inactive) | 12.7 µM (inactive) |
